18 substances from patent US10556926B2, “Synthetic artificial peptides with antimicrobial effect” (priority 2014, dated 2020) can be followed below.

No end group written: not given here.

In data set [1] the test system is human histiocytic lymphoma cell line U937. Kind of data set: Long-term growth inhibition, minimum toxic concentration (MTC). On the procedure:
The cytotoxic potential of the antimicrobial peptides was determined by way of example by reference to the human histiocytic lymphoma cell line U937 (DSMZ). The influence of the peptides on the permeability of the cell membrane and their longer-term growth-inhibiting effect was investigated. 15 ml of RPMI 1640 medium with 2 mM glutamine and 10% FCS (Biochrom, Berlin, Germany) were inoculated with 1·10^5 cells per ml and cultivated for three days at 37° in T75 cell culture bottles (TPP, Trasadingen, Switzerland) with constant gassing with 5% CO2 in a climatically controlled chamber. The medium was admixed with 10 U/ml penicillin and […] streptomycin (both AppliChem, Darmstadt, Germany) to avoid bacterial contaminations, with no further antibiotics being added during the subsequent recultivation. Before each experiment, the cells were washed by centrifugation at 100 g for five minutes and subsequent resuspension in RPMI 1640 medium with 2 mM glutamine and 10% FCS in each case two times and adjusted to a concentration of 1·10^5 cells per ml. Finally, in each case 100 μl of the U937 cells were transferred to the reaction chambers of a sterile 96-well polypropylene microtiter plate and admixed with in each case 100 μl of a prediluted antimicrobial peptide in RPMI 1640 medium without antibiotic addition, such that end concentrations of in each case 5·10^4 cells per ml at peptide concentrations between 0.25 μM and 64 μM were present. The negative control used was samples without antimicrobial peptide, while Triton X-100 (AppliChem) was used in an end concentration of 5% as positive control for the permeabilization. The samples were cultivated for two hours at 37° C. and with continuous gassing with 5% CO2 in a climatically controlled chamber. Then, in each case 100 μl of each sample were removed and transferred to new sterile microtiter plates for determining the direct membrane damage. The remaining 100 μl of the samples were cultivated for at least four further days.
For this purpose, 10 μl of lysing solution were added to in each case 100 μl of cell suspension and incubated for 60 minutes at 37° C. Then, the cell culture supernatants were investigated as described above. The lowest peptide concentration at which complete suppression of the cell growth was established after four days was stipulated as the minimum toxic concentration (MTC).

Data set [2] shares this test system. As to the kind of experiment: Cytotoxicity, direct membrane damage (CytoTox 96), LD50. The data set is classed as cell-based. Conditions: U937, two hours at 37° C., 0.25-64 μM. On the procedure: The direct membrane damage was investigated with the help of the CytoTox 96 Non-Radioactive Cytotoxicity Assay (Promega, Mannheim, Germany). For this purpose, the cells were sedimented at 100 g for ten minutes at 4° C., and 50 μl of the resulting culture supernatant were added to 50 μl of the CytoTox substrate mix. After an incubation time of 30 minutes in the dark at room temperature, 50 μl of the CytoTox stopping solution were added to the sample and the absorption was measured at 490 nm. To determine the LD50 value, the measurement value of the negative control was deducted from the absorption values and divided by the measurement value of the permeabilization control. The calculated values were plotted graphically against the peptide concentration and fitted using the Origin pro 8.1 G Software according to a sigmoidal model and the LD50 values were ascertained from this. The calculation was carried out analogously to example 5 by reference to the solution of equation 5.1 for the case y=50, where y in this case corresponds to the relative cytotoxicity in percent and x corresponds to the peptide concentration in μM. Representative graphical evaluations of LD50 values are shown in FIG. 6 by reference to the measurement results for the reference peptides BMAP-27, protamine and KL-helix, and also the peptide O1 according to the invention.

The subject of data set [3] is E. coli DH5α. Conditions: DH5α, 18 h. On the procedure:
(§1) The minimum inhibitory concentration (MIC) of the peptides was carried out by way of example against gram(−) E. coli DH5α (and gram(+) Staphylococcus xylosus (both Deutsche Sammlung von Mikroorganismen and Zellkulturen, DSMZ) in a standardized microdilution method according to the general guidelines of the CLSI (Clinical and Laboratory Standards Institute 2006) and EUCAST (European Committee for Antimicrobial Susceptibility Testing of the European Society of Clinical Microbiology and Infectious Diseases 2003) with slight adaptations to the investigation of cationic antimicrobial peptides (Wiegand et al. 2008). The bacteria cells were cultivated in Mueller-Hinton-Boullion (MHB) to an optical density of 0.4 to 0.6 at 600 nm wavelength, corresponding to about 4·10^8 bacteria per ml. Then, the bacteria cultures were diluted to a bacteria concentration of about 1·10^5 bacteria per ml in sterile MHB. Using the peptides, series of 2-fold dilutions starting at 128 μM to the smallest dilution of 0.5 μM in MHB were prepared. The peptide dilutions were mixed with the dilute bacteria cultures in a […] in the chambers of a 96-well polypropylene microtiter plate (Starlab, Hamburg, Germany), so that the peptides were present in an end concentration between 64 μM and 0.25 μM at a bacteria concentration of 5·10^4 bacteria/ml. Sterile MHB served as negative control, and the positive control used as the corresponding bacteria concentration in MHB without the addition of peptide. The microtiter plates were incubated for 18 hours at 37° C. with shaking at 120 rpm in a climatically controlled chamber. After the incubation, the bacteria concentration was determined by renewed absorption measurement at a wavelength of 600 nm.

The subject of data set [4] is Staphylococcus xylosus. Conditions: 18 h. As for the experimental part:
as §1

Take KRKILILIKR [C3]: the “Toxicity MTC (minimum toxic concentration)” value (shortened to “Toxicity MTC”) in data set [1] is above 64 µM. The “Toxicity LD50” value in data set [2] was above 64 µM. For the same substance, the “MIC E. coli” value in data set [3] came out at 16 µM. In addition, the “MIC S. xylosus” value in data set [4] came to 8 µM.
For the substance KRKILILIKRK [M1], in data set [1], the “Toxicity MTC” value is above 64 µM. Moreover, the “Toxicity LD50” value in data set [2] is above 64 µM. Besides, in data set [3], the “MIC E. coli” value was 8 µM. The “MIC S. xylosus” value in data set [4] worked out at 2 µM.
On to KRKILILIKRKR [C2], for which the “Toxicity MTC” value in data set [1] is above 64 µM. In addition, in data set [2], the “Toxicity LD50” value was above 64 µM. The “MIC E. coli” value in data set [3] was found to be 16 µM. Besides, the “MIC S. xylosus” value in data set [4] stood at 2 µM.
On to KRKILILIKRKRK [C1], for which, in data set [1], the “Toxicity MTC” value is above 64 µM. Further, in data set [2], the “Toxicity LD50” value came out at 61 µM. The “MIC E. coli” value in data set [3] is 16 µM. Besides, the “MIC S. xylosus” value in data set [4] came out at 1 µM.
On to KRKILILILIKRK [H1], for which the “Toxicity MTC” value in data set [1] was above 64 µM. For the same substance, the “Toxicity LD50” value in data set [2] is above 64 µM. In data set [3], the “MIC E. coli” value worked out at 8 µM. The “MIC S. xylosus” value in data set [4] turned out to be 1 µM.
For KRKILILILIL [M2], the “Toxicity MTC” value in data set [1] is above 64 µM. Moreover, the “Toxicity LD50” value in data set [2] is above 64 µM. Moreover, the “MIC E. coli” value in data set [3] was above 64 µM. In addition, the “MIC S. xylosus” value in data set [4] was above 64 µM.
As for KRKKRK [H6, KRKKRK], the “Toxicity MTC” value in data set [1] was above 64 µM. In addition, in data set [2], the “Toxicity LD50” value is above 64 µM. The “MIC E. coli” value in data set [3] was above 64 µM. Also, in data set [4], the “MIC S. xylosus” value worked out at 16 µM.
For KRKLIKRK [H4], the “Toxicity MTC” value in data set [1] is above 64 µM. In data set [2], the “Toxicity LD50” value was above 64 µM. Further, the “MIC E. coli” value in data set [3] is above 64 µM. Further, the “MIC S. xylosus” value in data set [4] was above 64 µM.
Consider KRKLILIKRK [H2], for which the “Toxicity MTC” value in data set [1] is above 64 µM. Besides, in data set [2], the “Toxicity LD50” value was above 64 µM. In addition, the “MIC E. coli” value in data set [3] was above 64 µM. For the same substance, the “MIC S. xylosus” value in data set [4] was 16 µM.
Take KRKLILKRILIKRK [A2]: the “Toxicity MTC” value in data set [1] was above 64 µM. In data set [2], the “Toxicity LD50” value was above 64 µM. Moreover, the “MIC E. coli” value in data set [3] was 16 µM. Also, in data set [4], the “MIC S. xylosus” value stood at 8 µM.
For the substance KRKSGSGSKRK [M6], the “Toxicity MTC” value in data set [1] was above 64 µM. For the same substance, the “Toxicity LD50” value in data set [2] is above 64 µM. Besides, the “MIC E. coli” value in data set [3] was above 64 µM. Further, the “MIC S. xylosus” value in data set [4] was above 64 µM.
Consider LIKRK [N8, LIKRK], for which, in data set [1], the “Toxicity MTC” value was above 64 µM. Also, the “Toxicity LD50” value in data set [2] was above 64 µM. Moreover, the “MIC E. coli” value in data set [3] was above 64 µM. In data set [4], the “MIC S. xylosus” value is above 64 µM.
LILIKRK [N6, LILIKRK]: the “Toxicity MTC” value in data set [1] is above 64 µM. For the same substance, the “Toxicity LD50” value in data set [2] is above 64 µM. Moreover, the “MIC E. coli” value in data set [3] was above 64 µM. The “MIC S. xylosus” value in data set [4] was above 64 µM.
With LILKRKRKRKRILI [A5], the “Toxicity MTC” value in data set [1] is above 64 µM. In addition, the “Toxicity LD50” value in data set [2] is above 64 µM. Further, the “MIC E. coli” value in data set [3] is above 64 µM. In addition, the “MIC S. xylosus” value in data set [4] was above 64 µM.
Turning to RKILILIKRK [N3], in data set [1], the “Toxicity MTC” value was above 64 µM. The “Toxicity LD50” value in data set [2] was above 64 µM. In addition, the “MIC E. coli” value in data set [3] turned out to be 16 µM. Also, the “MIC S. xylosus” value in data set [4] came to 4 µM.
RKLILKRKRILIKR [A3]: the “Toxicity MTC” value in data set [1] was above 64 µM. Moreover, in data set [2], the “Toxicity LD50” value is above 64 µM. Moreover, the “MIC E. coli” value in data set [3] was determined as 16 µM. In addition, the “MIC S. xylosus” value in data set [4] was found to be 8 µM.
As to RKRKILILIKRK [N2], the “Toxicity MTC” value in data set [1] was above 64 µM. For the same substance, in data set [2], the “Toxicity LD50” value is above 64 µM. Besides, the “MIC E. coli” value in data set [3] is 8 µM. Also, the “MIC S. xylosus” value in data set [4] was determined as 2 µM.
Turning to RKRKLILILIKRKR [A1], the “Toxicity MTC” value in data set [1] was above 64 µM. Moreover, the “Toxicity LD50” value in data set [2] is above 64 µM. Further, the “MIC E. coli” value in data set [3] amounted to 8 µM. For the same substance, the “MIC S. xylosus” value in data set [4] is 0.5 µM.
